Five molecules from patent US6544986B2, “Pyridones and their use as modulators of serine hydrolase enzymes” (Dalhousie University, priority 2000, dated 2003) can be followed below.

Entries after “also recorded” stand apart in the source; their conditions may differ.

The target in one assay is human BuChE (Homo sapiens, UniProt P06276). Nature of the assay: Esterase activity assay (modified Ellman), BuChE with butyrylthiocholine. The assay is classed as biochemical. The following applies: for Ki: substrate butyrylthiocholine, pH 8.0, room temperature, from slopes of Lineweaver-Burk plots vs log concentration, read-out: Esterase Ki BuChE(h). On the procedure:
(§1) The esterase activity of BuChE or AChE was determined by a modification of the method described by Ellman et al. (32), using a buffered 5,5′-dithiobis (2-nitrobenzoic acid) (DTNB) solution. Stock DTNB solution consisted of 10 mM DTNB with 18 mM sodium bicarbonate in 0.1 M phosphate buffer, pH 7.0. Working DTNB solution was prepared by mixing 3.6 mL of 10 mM stock DTNB solution with 96.4 mL of 0.1 M phosphate buffer at pH 8.0. The assay was carried out by mixing 2.7.mL of buffered DTNB working solution (pH 8.0), 0.1 mL of BuChE or AChE in 0.005% aqueous gelatin (1 U/mL), and 0.1 mL of 50% aqueous acetonitrile, or a solution of a 2-pyridone compound of the invention in the same solvent, in a quartz cuvette of 1 cm path-length. Absorbance of this solution was calibrated to zero and the reaction was commenced by adding 0.1 mL of aqueous acetylthiocholine (AcSCh) or butyrylthiocholine (BuSCh) solutions of varying concentration (between 1.9 mM and 15 mM). The final volume was always 3.0 mL. The reactions were carried out at room temperature. The rate of change of absorbance (ΔA/min), reflecting the rate of hydrolysis of BuSCh or AcSCh, was recorded every 5 seconds for a total of 1 minute using a Milton-Roy uv-visible spectrophotometer set at λ=412 nm.
(§2) The slopes of Lineweaver-Burk plots versus Log of inhibitor concentration were used to determine the inhibitor constant Ki.
(§3) The effect of increasing amount of exemplified 2-pyridone compounds (Examples 1 to 10) on the activity of human BuChE and AChE is shown in FIGS. 1 to 10.
(§4) The compounds of Examples 1 to 9 inhibited BuChE and AChE to varying degrees. Graphs of the slopes obtained from Lineweaver-Burk double reciprocal graphs versus log of the concentration of each compound gave the inhibition constant Ki for each compound.
(In general: In Ellman's method for cholinesterases, released thiocholine reacts with DTNB.)

The target in another assay is human AChE (Homo sapiens, UniProt P22303). Nature of the assay: Esterase activity assay (modified Ellman), AChE with acetylthiocholine. It counts as biochemical. The following applies: substrate acetylthiocholine; for Ki: read-out: Esterase Ki AChE(h). As to the method: as §1, §2, §3, §4
Chain of human AChE (P22303 32-614): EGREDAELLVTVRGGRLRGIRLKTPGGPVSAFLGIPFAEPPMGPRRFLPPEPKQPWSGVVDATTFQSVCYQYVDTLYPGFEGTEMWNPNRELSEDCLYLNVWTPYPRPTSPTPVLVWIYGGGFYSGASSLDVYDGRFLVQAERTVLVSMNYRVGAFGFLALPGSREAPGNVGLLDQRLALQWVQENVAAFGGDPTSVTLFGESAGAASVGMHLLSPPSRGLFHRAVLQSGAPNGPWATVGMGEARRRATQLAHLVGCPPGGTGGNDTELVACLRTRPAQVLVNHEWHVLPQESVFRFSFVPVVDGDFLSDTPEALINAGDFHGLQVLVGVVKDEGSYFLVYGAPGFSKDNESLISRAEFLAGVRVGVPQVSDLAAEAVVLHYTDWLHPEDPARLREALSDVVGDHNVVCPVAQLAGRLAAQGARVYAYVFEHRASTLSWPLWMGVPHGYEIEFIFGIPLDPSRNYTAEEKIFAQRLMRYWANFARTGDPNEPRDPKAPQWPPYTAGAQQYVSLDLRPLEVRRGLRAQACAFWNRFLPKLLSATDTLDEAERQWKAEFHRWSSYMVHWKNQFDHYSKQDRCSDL
Another assay deals with human trypsin. The experiment in a line: Trypsin activity assay (BAPNA hydrolysis, HPLC of PNA), trypsin. The assay is classed as biochemical. The following applies: substrate BAPNA, Tris buffer pH 8.0, 40° C.; FIG. 12. On the procedure: (§5) The effect of 2-pyridone compounds on trypsin-like enzymatic activity associated with BuChE and that of human trypsin was determined using Nα-benzoyl-DL-arginine-p-nitroanilide (BAPNA) as the substrate. The same procedure was used to study the effect of the compounds on BuChE-trypsin mixture. Reactions were performed in 0.06 M Tris buffer at pH 8.0. […] The incubations were carried out in 1.5 mL Eppendorf tubes by mixing 0.85 mL of 0.06 M Tris buffer (pH 8.0), 0.07 mL of up to 10 mM BAPNA, 0.03 mL of 50% aqueous acetonitrile, or a solution of 2-pyridone compound (typically, a 5 mM working solution) in the same solvent, and 0.05 mL of the enzyme solution (0.5-1.5 U of trypsin in 1 mM hydrochloric acid, or up to 5.0 U of BuChE in 0.005% aqueous gelatin). The final volume of the assay mixture was always 1.0 mL. The enzyme reaction mixture was incubated at 40° C. for 15-45 hours. The use of 1.5 U of trypsin gave an amount of p-nitroaniline (PNA) produced upon cleavage of BAPNA by trypsin after 22 hours of incubation that was similar to the amount of product formed by trypsin-like activity associated with 5 U of BuChE under the same conditions.
(§6) The concentration of the PNA was determined by means of high performance liquid chromatography (HPLC). […] The rate of formation of PNA was calculated by using the following formula: […]

Assay [1] relates to trypsin-like enzymatic activity associated with BuChE. Nature of the assay: Trypsin activity assay (BAPNA hydrolysis, HPLC of PNA), trypsin-like activity associated with BuChE. The following applies: substrate BAPNA, Tris buffer pH 8.0, 40° C.; FIG. 11. The assay is classed as biochemical, human. On the procedure: as §5, §6
Where [2] appears, read: pH 8.0, room temperature, from slopes of Lineweaver-Burk plots vs log concentration.

Chain of human BuChE (P06276 29-602): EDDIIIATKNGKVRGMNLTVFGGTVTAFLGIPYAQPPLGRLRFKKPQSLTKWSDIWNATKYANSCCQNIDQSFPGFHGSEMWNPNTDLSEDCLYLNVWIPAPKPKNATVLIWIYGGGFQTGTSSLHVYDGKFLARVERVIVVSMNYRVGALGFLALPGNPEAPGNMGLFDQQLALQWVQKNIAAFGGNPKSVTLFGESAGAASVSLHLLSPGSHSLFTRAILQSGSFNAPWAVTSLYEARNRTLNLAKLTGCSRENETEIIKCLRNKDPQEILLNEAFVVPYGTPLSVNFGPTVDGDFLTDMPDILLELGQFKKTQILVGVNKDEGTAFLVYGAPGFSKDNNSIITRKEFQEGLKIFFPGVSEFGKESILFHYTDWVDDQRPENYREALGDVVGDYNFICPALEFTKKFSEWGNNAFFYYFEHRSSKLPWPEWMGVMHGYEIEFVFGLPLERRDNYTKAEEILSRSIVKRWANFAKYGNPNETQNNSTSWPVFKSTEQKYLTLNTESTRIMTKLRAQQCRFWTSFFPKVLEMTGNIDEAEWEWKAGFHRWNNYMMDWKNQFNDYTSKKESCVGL

As to `CCN(CC)C(=O)c1ccc(=O)[nH]c1` [Example 3, 5-(N,N-Diethyl)aminocarbonyl-2-pyridone], the Ki at human BuChE was 1300 µM; at human AChE (setting [2]), 7600 µM.

Take `CC(C)N(C(=O)c1ccc(=O)[nH]c1)C(C)C` [Example 2, 5-(N,N-Diisopropyl)aminocarbonyl-2-pyridone]: the results for the Ki on human BuChE and at human AChE (setting [2]) were 1430 µM and 131 µM, respectively.

On to `O=C(c1ccc(=O)[nH]c1)N(Cc1ccccc1)Cc1ccccc1` [Example 1, 5-(N,N-Dibenzyl)aminocarbonyl-2-pyridone], for which the Ki turned out to be 37.5 µM at human BuChE and 260 µM on human AChE (setting [2]). For the same molecule, the “effect on enzymatic activity of trypsin itself” value with human trypsin is given as “do not have direct effect on trypsin alone”. Besides, in assay [1], the “effect on trypsin-like activity associated with BuChE (rate of hydrolysis of BAPNA)” value was “increased the rate of hydrolysis; also recorded: considerably enhanced”.

For `O=C(NC1CCCCC1)c1ccc(=O)[nH]c1` [Example 7, 5-(N-Cyclohexyl)aminocarbonyl-2-pyridone], the inhibitory constant (Ki) at human BuChE stood at 137 µM. Moreover, the “inhibition of the activity of AChE on acetylthiocholine (in words)” value on human AChE was “no inhibition”. Besides, the “Esterase Ki AChE(h)” value at human AChE (setting [2]) is on record as “Insignificant inhibition”.

As for `CCN(CC)Cc1ccc(=O)[nH]c1` [Example 4, 5-(N,N-Diethyl)aminomethyl-2-pyridone], the “inhibitory activity towards each cholinesterase studied (comparison)” value against human BuChE (BuChE versus AChE) is “equal inhibitory activity”. Also, the inhibition constant (Ki) came out at 3890 µM at human BuChE and 4770 µM at human AChE (setting [2]).

As a reminder, the Ki is the equilibrium dissociation constant of an inhibitor or competing ligand from its target.
